Consider three compounds from ChEMBL document CHEMBL2073961, “Reduced hepatic uptake and intestinal excretion of organic cations in mice with a targeted disruption of the organic cation transporter 1 (Oct1 [Slc22a1]) gene” (Mol Cell Biol, 2001).

This data set has as its target T1, Solute carrier family 22 member 1 (Mus musculus, UniProt O08966).
T1 sequence (O08966 whole entry): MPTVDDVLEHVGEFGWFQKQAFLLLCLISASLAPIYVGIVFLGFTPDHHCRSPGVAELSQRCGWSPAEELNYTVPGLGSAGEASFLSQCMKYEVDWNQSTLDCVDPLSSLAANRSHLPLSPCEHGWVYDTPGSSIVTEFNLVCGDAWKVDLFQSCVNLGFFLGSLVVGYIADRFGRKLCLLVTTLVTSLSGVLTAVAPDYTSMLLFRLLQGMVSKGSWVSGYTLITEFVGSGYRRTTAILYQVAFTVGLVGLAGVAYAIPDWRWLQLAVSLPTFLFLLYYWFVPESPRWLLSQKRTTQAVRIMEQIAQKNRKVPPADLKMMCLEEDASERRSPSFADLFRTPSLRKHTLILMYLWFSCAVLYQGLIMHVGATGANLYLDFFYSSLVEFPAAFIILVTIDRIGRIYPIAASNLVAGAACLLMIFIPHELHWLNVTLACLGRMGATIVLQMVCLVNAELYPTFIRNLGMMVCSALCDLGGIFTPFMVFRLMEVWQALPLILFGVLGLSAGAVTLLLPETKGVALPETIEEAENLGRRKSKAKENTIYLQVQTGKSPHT
Nature of the data set: TP_TRANSPORTER: decrease in liver concentration in Oct1 -/- mouse. The data set is classed as functional, organism-based. Particulars: in vivo.

Consider `N=C(N)NCc1cccc(I)c1` [IOBENGUANE], for which the Activity result was “substrate [+]”. Take `C[n+]1ccc(-c2ccccc2)cc1`: the Activity result was “substrate [+]”. As for `CC[N+](CC)(CC)CC` [TETRYLAMMONIUM], the Activity result was “substrate [+]”.
